Test results taken from patent US20200017495A1, “NOVEL HETEROCYCLIC COMPOUNDS AND THEIR USE IN PREVENTING OR TREATING BACTERIAL INFECTIONS” (priority 2017, published 2020).

How the values were obtained:
[1] = test system: Providencia rettgeri (PRE) isolates; assay: MIC of compounds alone and combined with antibacterials, broth microdilution (CLSI); type: cell-based
Summary of the method: (§1)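 First, log-phase suspensions are brought to 5.10^5 CFU/mL final in ca-MHB; plates then incubate 16-20 h at 35° C in air. Growth is judged visually, giving the compound MIC alone and the antibacterial MIC at each compound concentration.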

[2] = test system: Serratia marcescens (SMA) isolates; assay: as above; type: cell-based
Summary of the method: as §1

SMILES: CC(C)(O/N=C(\C(=O)N[C@@H]1C(=O)N2C(C(=O)[O-])=C(C[n+]3ccccc3)CS[C@H]12)c1csc(N)n1)C(=O)O [CAZ, Ceftazidime]
- MIC ATB in combination ([1]; PRE UFR99, AF2 @ 8 μg/mL): >128 µg/mL
- MIC ATB in combination ([1]; PRE UFR99, AF3 @ 8 μg/mL): >128 µg/mL
- MIC ATB in combination ([1]; strain PRE UFR96, with AF2 @ 8 μg/mL): <0.25 µg/mL
- MIC ATB in combination ([1]; strain PRE UFR96, with AF3 @ 8 μg/mL): <0.25 µg/mL
- MIC ATB in combination ([1]; strain PRE UFR97, with AF2 @ 8 μg/mL): >128 µg/mL
- MIC ATB in combination ([1]; strain PRE UFR97, with AF3 @ 8 μg/mL): >128 µg/mL
- MIC ([1]; strain PRE UFR236, genotype TEM-1, OXA-48): 32 µg/mL
- MIC ATB in combination ([1]; strain PRE UFR236, with AF2 @ 8 μg/mL): 0.5 µg/mL
- MIC ATB in combination ([1]; strain PRE UFR236, with AF3 @ 8 μg/mL): <=0.25 μg/mL
- MIC ATB in combination ([2]; SMA UFR30, AF2 @ 8 μg/mL): 0.5 µg/mL
- MIC ATB in combination ([2]; SMA UFR30, AF3 @ 8 μg/mL): <=0.25 μg/mL
- MIC ATB in combination ([2]; SMA UFR134, AF2 @ 8 μg/mL): <=0.25 μg/mL
- MIC ATB in combination ([2]; SMA UFR134, AF3 @ 8 μg/mL): 0.5 µg/mL
- MIC ATB in combination ([2]; SMA UFR135, AF2 @ 8 μg/mL): 2 µg/mL
- MIC ATB in combination ([2]; SMA UFR135, AF3 @ 8 μg/mL): 4 µg/mL
- MIC ATB in combination ([2]; SMA UFR136, AF2 @ 8 μg/mL): 2 µg/mL
- MIC ATB in combination ([2]; SMA UFR136, AF3 @ 8 μg/mL): 1 µg/mL
- MIC ATB in combination ([2]; SMA UFR137, AF2 @ 8 μg/mL): <=0.25 μg/mL
- MIC ATB in combination ([2]; SMA UFR137, AF3 @ 8 μg/mL): 0.5 µg/mL
- MIC ATB in combination ([2]; SMA UFR138, AF2 @ 8 μg/mL): 0.5 µg/mL
- MIC ATB in combination ([2]; SMA UFR138, AF3 @ 8 μg/mL): <=0.25 μg/mL
- MIC ATB in combination ([2]; SMA UFR139, AF2 @ 8 μg/mL): 1 µg/mL
- MIC ATB in combination ([2]; SMA UFR139, AF3 @ 8 μg/mL): <=0.25 μg/mL
- MIC ATB in combination ([2]; SMA UFR141, AF2 @ 8 μg/mL): <=0.25 μg/mL
- MIC ATB in combination ([2]; SMA UFR141, AF3 @ 8 μg/mL): 0.5 µg/mL
- MIC ATB in combination ([2]; SMA UFR142, AF2 @ 8 μg/mL): 0.5 µg/mL
- MIC ATB in combination ([2]; SMA UFR142, AF3 @ 8 μg/mL): 0.5 µg/mL
- MIC ATB in combination ([2]; SMA UFR143, AF2 @ 8 μg/mL): <=0.25 μg/mL
- MIC ATB in combination ([2]; SMA UFR143, AF3 @ 8 μg/mL): <=0.25 μg/mL
- MIC ATB in combination ([2]; SMA UFR239, AF2 @ 8 μg/mL): 4 µg/mL
- MIC ATB in combination ([2]; SMA UFR239, AF3 @ 8 μg/mL): 0.5 µg/mL
- MIC ([2]; strain SMA UFR30, genotype OXA-405): 8 µg/mL
- MIC ([2]; strain SMA UFR134, genotype TEM-1, BES-1): 8 µg/mL
- MIC ([2]; strain SMA UFR135, genotype TEM-1, KPC-2): 32 µg/mL
- MIC ([2]; strain SMA UFR136, genotype TEM-1, SHV-12, KPC-2): >256 µg/mL
- MIC ([2]; strain SMA UFR137, genotype SME-1): 0.5 µg/mL
- MIC ([2]; strain SMA UFR138, genotype SME-1): <=0.25 μg/mL
- MIC ([2]; strain SMA UFR139, genotype SME-2): <=0.25 μg/mL
- MIC ([2]; strain SMA UFR140, genotype IMP-1): >128 µg/mL
- MIC ATB in combination ([2]; strain SMA UFR140, with AF2 @ 8 μg/mL): >128 µg/mL
- MIC ATB in combination ([2]; strain SMA UFR140, with AF3 @ 8 μg/mL): >128 µg/mL
- MIC ([2]; strain SMA UFR141, genotype OXA-48): 1 µg/mL
- MIC ([2]; strain SMA UFR142, genotype OXA-48): 0.5 µg/mL
- MIC ([2]; strain SMA UFR143, genotype CTX-M-15, OXA-1, OXA-48): 64 µg/mL
- MIC ([2]; strain SMA UFR238, genotype OXA-48): 0.5 µg/mL
- MIC ATB in combination ([2]; strain SMA UFR238, with AF2 @ 8 μg/mL): 0.5 µg/mL
- MIC ATB in combination ([2]; strain SMA UFR238, with AF3 @ 8 μg/mL): <=0.25 μg/mL
- MIC ([2]; strain SMA UFR239, genotype ESAC): 32 µg/mL
